According to US7297700B2, “Bicycloheteroaryl compounds as P2X7 modulators and uses thereof” (Renovis, Inc., priority 2005, dated 2007):

system: IL-1β release from THP-1 cells; experiment: IL-1β Release Assay (Alternate Method), THP-1 cells; type: cell-based, human; conditions: Homo sapiens; at 0.3 μM; THP-1 cells; read-out: IL-1β % inhibition
Summary of the method: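 THP-1 cells differentiated 16 h with 100 ng/mL LPS plus 100 ng/mL IFN-γ, reprimed 2 h with 100 ng/mL LPS, pretreated 30 min with compound, then challenged 45 min with 250 uM BzATP (final). Supernatant IL-1β quantified by ELISA; percent inhibition from background-adjusted levels versus untreated cells.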

Compound	inhibition at 0.3 µM
O=C(CC12CC3CC(CC(C3)C1)C2)Nc1ncnc2c1CCN(Cc1ccc3c(c1)OCCO3)C2 [Compound 46]	> 75%

same assay, conditions: at 0.3 μM; THP-1 cells

Compound	IL-1β % inhibition
Cc1cccc(C(=O)N2CCc3c(ncnc3NC(=O)C34CC5CC(CC(C5)C3)C4)C2)c1 [Compound 403]	++ (compound exhibited 25-50% inhibition at 0.3 μM)
CC(CC(=O)N1CCc2c(ncnc2NC(=O)CC23CC4CC(CC(C4)C2)C3)C1)CC(C)(C)C (stereo not shown) [Compound 235]	++++ (compound exhibited 75% or greater inhibition at 0.3 μM)
COc1cccc(C(=O)N2CCc3c(ncnc3NC(=O)CC34CC5CC(CC(C5)C3)C4)C2)c1 [Compound 250]	+++ (compound exhibited 50-75% inhibition at 0.3 μM)
O=C(CC12CC3CC(CC(C3)C1)C2)Nc1ncnc2c1CCN(S(=O)(=O)c1ccc(OC(F)F)cc1)C2 [Compound 190]	+++ (compound exhibited 50-75% inhibition at 0.3 μM)
CC12CC3CC(C)(C1)CC(CC(=O)Nc1ncnc4c1CCN(S(=O)(=O)c1cccc(Cl)c1)C4)(C3)C2 [Compound 380]	+ (compound exhibited 0-25% inhibition at 0.3 μM)
O=C(CC12CC3CC(CC(C3)C1)C2)Nc1ncnc2c1CCN(C(=O)c1ccccc1F)C2 [Compound 280]	+++ (compound exhibited 50-75% inhibition at 0.3 μM)
Cc1ccc(F)c(CN2CCc3c(ncnc3NC(=O)CC34CC5CC(CC(C5)C3)C4)C2)c1Cl [Compound 88]	+++ (compound exhibited 50-75% inhibition at 0.3 μM)
O=C(CC12CC3CC(CC(C3)C1)C2)Nc1ncnc2c1CCN(Cc1ccc(-n3ccnc3)cc1)C2 [Compound 98]	++ (compound exhibited 25-50% inhibition at 0.3 μM)
COc1cc(CN2CCc3c(ncnc3NC(=O)CC34CC5CC(CC(C5)C3)C4)C2)cc(OC)c1 [Compound 37]	+ (compound exhibited 0-25% inhibition at 0.3 μM)
COc1ccc(CN2CCc3c(ncnc3NC(=O)CC34CC5CC(CC(C5)C3)C4)C2)cc1F [Compound 119]	++ (compound exhibited 25-50% inhibition at 0.3 μM)
O=C(CC12CC3CC(CC(C3)C1)C2)Nc1ncnc2c1CCN(C(=O)COc1ccccc1)C2 [Compound 249]	+ (compound exhibited 0-25% inhibition at 0.3 μM)
O=C(CC12CC3CC(CC(C3)C1)C2)Nc1ncnc2c1CCN(S(=O)(=O)c1ccc(Oc3ccccc3)cc1)C2 [Compound 191]	+ (compound exhibited 0-25% inhibition at 0.3 μM)
COc1ccc(S(=O)(=O)N2CCc3c(ncnc3NC(=O)CC34CC5CC(CC(C5)C3)C4)C2)c(OC)c1 [Compound 197]	++++ (compound exhibited 75% or greater inhibition at 0.3 μM)
O=C(NCC1CCCCC1)c1ncnc2c1CCN(Cc1ccccc1)C2 [Compound 4]	+ (compound exhibited 0-25% inhibition at 0.3 μM)
O=C(CC12CC3CC(CC(C3)C1)C2)Nc1ncnc2c1CCN(C(=O)c1ccccc1C(F)(F)F)C2 [Compound 270]	+ (compound exhibited 0-25% inhibition at 0.3 μM)
O=C(CC12CC3CC(CC(C3)C1)C2)Nc1ncnc2c1CCN(Cc1ccc3c(c1)OCO3)C2 [Compound 321]	++++ (compound exhibited 75% or greater inhibition at 0.3 μM)
O=C(CC12CC3CC(CC(C3)C1)C2)Nc1ncnc2c1CCN(Cc1c[nH]cn1)C2 [Compound 82]	+++ (compound exhibited 50-75% inhibition at 0.3 μM)
COc1cc(OCc2ccccc2)ccc1CN1CCc2c(ncnc2NC(=O)CC23CC4CC(CC(C4)C2)C3)C1 [Compound 330]	+++ (compound exhibited 50-75% inhibition at 0.3 μM)
COc1ccc(OC)c(S(=O)(=O)N2CCc3c(ncnc3NC(=O)CC34CC5CC(CC(C5)C3)C4)C2)c1 [Compound 216]	+++ (compound exhibited 50-75% inhibition at 0.3 μM)
O=C(CC1CCCCC1)Nc1ncnc2c1CCN(Cc1ccccc1)C2 [Compound 9]	+ (compound exhibited 0-25% inhibition at 0.3 μM)
O=C(CC12CC3CC(CC(C3)C1)C2)Nc1ncnc2c1CCN(S(=O)(=O)c1c(Cl)cccc1Cl)C2 [Compound 210]	+ (compound exhibited 0-25% inhibition at 0.3 μM)
CCc1ccc(C(=O)N2CCc3c(ncnc3NC(=O)C34CC5CC(CC(C5)C3)C4)C2)cc1 [Compound 402]	+ (compound exhibited 0-25% inhibition at 0.3 μM)
O=C(c1ccc(F)c(F)c1)N1CCc2c(ncnc2NC(=O)C23CC4CC(CC(C4)C2)C3)C1 [Compound 405]	++ (compound exhibited 25-50% inhibition at 0.3 μM)
CSc1ccc(CN2CCc3c(ncnc3NC(=O)CC34CC5CC(CC(C5)C3)C4)C2)cc1 [Compound 116]	+ (compound exhibited 0-25% inhibition at 0.3 μM)
COc1ccccc1CCC(=O)Nc1ncnc2c1CCN(Cc1ccccc1)C2 [Compound 24]	+ (compound exhibited 0-25% inhibition at 0.3 μM)
COc1cc(CN2CCc3c(ncnc3NC(=O)CC34CC5CC(CC(C5)C3)C4)C2)ccc1F [Compound 103]	+ (compound exhibited 0-25% inhibition at 0.3 μM)
O=C(CC12CC3CC(CC(C3)C1)C2)Nc1ncnc2c1CCN(CC1CCCCC1)C2 [Compound 122]	+ (compound exhibited 0-25% inhibition at 0.3 μM)
O=C(CC12CC3CC(CC(C3)C1)C2)Nc1ncnc2c1CCN(C(=O)C1CCCC1)C2 [Compound 238]	++++ (compound exhibited 75% or greater inhibition at 0.3 μM)

same assay, conditions: at 0.3 μM; THP-1 cells, BzATP-stimulated

Compound	IL-1β % inhibition
COc1cccc(CN2CCc3c(ncnc3NC(=O)C34CC5CC(CC(C5)C3)C4)C2)c1 [Compound 584]	+ (compound exhibited 0-25% inhibition at 0.3 μM)
COc1cc(F)c(CN2CCc3c(ncnc3NC(=O)C34CC5CC(CC(C5)C3)C4)C2)c(F)c1 [Compound 624]	+ (compound exhibited 0-25% inhibition at 0.3 μM)
O=C(Cc1ccccc1Br)N1CCc2c(ncnc2NC(=O)C23CC4CC(CC(C4)C2)C3)C1 [Compound 470]	+ (compound exhibited 0-25% inhibition at 0.3 μM)
O=C(Nc1ncnc2c1CCN(S(=O)(=O)c1ccc(OC(F)(F)F)cc1)C2)C12CC3CC(CC(C3)C1)C2 [Compound 493]	++ (compound exhibited 25-50% inhibition at 0.3 μM)
O=C(C1COc2ccccc2C1)N1CCc2c(ncnc2NC(=O)C23CC4CC(CC(C4)C2)C3)C1 (racemic) [Compound 477]	++ (compound exhibited 25-50% inhibition at 0.3 μM)
O=C(Nc1ncnc2c1CCN(Cc1cccnc1)C2)C12CC3CC(CC(C3)C1)C2 [Compound 560]	++ (compound exhibited 25-50% inhibition at 0.3 μM)
O=C(Nc1ncnc2c1CCN(Cc1ccc(Oc3ccccc3)cc1)C2)C12CC3CC(CC(C3)C1)C2 [Compound 576]	+++ (compound exhibited 50-75% inhibition at 0.3 μM)
O=C(Nc1ncnc2c1CCN(S(=O)(=O)Cc1ccc(Cl)cc1)C2)C12CC3CC(CC(C3)C1)C2 [Compound 522]	+++ (compound exhibited 50-75% inhibition at 0.3 μM)
Cc1ccc(C(=O)N2CCc3c(ncnc3NC(=O)C34CC5CC(CC(C5)C3)C4)C2)cc1 [Compound 461]	+ (compound exhibited 0-25% inhibition at 0.3 μM)
O=C(Nc1ncnc2c1CCN(S(=O)(=O)c1cc(C(F)(F)F)ccc1Cl)C2)C12CC3CC(CC(C3)C1)C2 [Compound 514]	+ (compound exhibited 0-25% inhibition at 0.3 μM)
COc1cc(CN2CCc3c(ncnc3NC(=O)C34CC5CC(CC(C5)C3)C4)C2)ccc1F [Compound 629]	+ (compound exhibited 0-25% inhibition at 0.3 μM)
